Assay results: PubChem BioAssay (NCI)
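These data come from cells grown in 96-well plates and exposed to compound for 48 hours at five concentrations. At the TGI there is no net growth.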

These compounds were tested on BT-549 breast (assay: growth of human tumour cells (NCI), 48 h).
`Cc1cc(C)cc(C(=N)c2ccccc2Cc2cccc3ccccc23)c1` was tested, and the TGI was > 100 µM. In the case of `COc1cc(/C=C2\C[C@H]3[C@@H]4CC=C5C[C@@H](O)CC[C@]5(C)[C@H]4CC[C@]3(C)C2=O)cc(OC)c1OC`, the TGI was > 100 µM. In the case of `C#CCn1ncc2c(SCc3ccccc3)ncnc21`, the TGI was > 100 µM. Compound `CCOC(=O)C1(C(=O)OCC)CN(CC)CN(c2ccccc2)C1` has a TGI of 86.6 µM.

Each compound was assayed on IGROV1 ovarian (assay: growth of human tumour cells (NCI), 48 h).
Compound `CC(=O)OC1CC2c3cccc4c3C(CC2N(C)C1=O)CN4C(=O)c1ccccc1` (stereo unspecified) has a TGI of 43.8 µM. For `COc1ccc2c3c1O[C@H]1C(O)CCC4(O)[C@@H](C2)NCC[C@]314` (stereo partly specified), the TGI was > 100 µM. `O=C(O)c1nc(-c2ccccn2)c(-c2ccccn2)nc1C(=O)O` gave a TGI of 21 µM. Work on `Cc1cc(C)cc(C(=N)c2ccccc2Cc2cccc3ccccc23)c1` yielded a TGI of 34.9 µM. For `COc1cc(/C=C2\C[C@H]3[C@@H]4CC=C5C[C@@H](O)CC[C@]5(C)[C@H]4CC[C@]3(C)C2=O)cc(OC)c1OC`, the TGI was > 100 µM. For `C#CCn1ncc2c(SCc3ccccc3)ncnc21`, the TGI was > 100 µM. With `CCOC(=O)C1(C(=O)OCC)CN(CC)CN(c2ccccc2)C1` the TGI was 39.8 µM.

These compounds were tested on CAKI-1 renal (assay: growth of human tumour cells (NCI), 48 h).
Work on `CC(=O)OC1CC2c3cccc4c3C(CC2N(C)C1=O)CN4C(=O)c1ccccc1` (stereo unspecified) yielded a TGI of 54.8 µM. With `COc1ccc2c3c1O[C@H]1C(O)CCC4(O)[C@@H](C2)NCC[C@]314` (stereo partly specified) the TGI was > 100 µM. With `O=C(O)c1nc(-c2ccccn2)c(-c2ccccn2)nc1C(=O)O` the TGI was 8.5 µM. Work on `Cc1cc(C)cc(C(=N)c2ccccc2Cc2cccc3ccccc23)c1` yielded a TGI of 72.9 µM. For `COc1cc(/C=C2\C[C@H]3[C@@H]4CC=C5C[C@@H](O)CC[C@]5(C)[C@H]4CC[C@]3(C)C2=O)cc(OC)c1OC`, the TGI was > 100 µM. With `C#CCn1ncc2c(SCc3ccccc3)ncnc21` the TGI was > 100 µM. `CCOC(=O)C1(C(=O)OCC)CN(CC)CN(c2ccccc2)C1` was tested, and the TGI was 31.8 µM.

The compounds below were run on HT29 colon (assay: growth of human tumour cells (NCI), 48 h).
`CC(=O)OC1CC2c3cccc4c3C(CC2N(C)C1=O)CN4C(=O)c1ccccc1` (stereo unspecified) was tested, and the TGI was 49.9 µM. With `COc1ccc2c3c1O[C@H]1C(O)CCC4(O)[C@@H](C2)NCC[C@]314` (stereo partly specified) the TGI was > 100 µM. Compound `O=C(O)c1nc(-c2ccccn2)c(-c2ccccn2)nc1C(=O)O` has a TGI of 8.54 µM. In the case of `Cc1cc(C)cc(C(=N)c2ccccc2Cc2cccc3ccccc23)c1`, the TGI was 24.5 µM. Work on `COc1cc(/C=C2\C[C@H]3[C@@H]4CC=C5C[C@@H](O)CC[C@]5(C)[C@H]4CC[C@]3(C)C2=O)cc(OC)c1OC` yielded a TGI of 47.7 µM. For `C#CCn1ncc2c(SCc3ccccc3)ncnc21`, the TGI was > 100 µM. In the case of `CCOC(=O)C1(C(=O)OCC)CN(CC)CN(c2ccccc2)C1`, the TGI was 37.8 µM.

The compounds below were run on SK-OV-3 ovarian (assay: growth of human tumour cells (NCI), 48 h).
For `CC(=O)OC1CC2c3cccc4c3C(CC2N(C)C1=O)CN4C(=O)c1ccccc1` (stereo unspecified), the TGI was 80.4 µM. `COc1ccc2c3c1O[C@H]1C(O)CCC4(O)[C@@H](C2)NCC[C@]314` (stereo partly specified) was tested, and the TGI was > 100 µM. With `O=C(O)c1nc(-c2ccccn2)c(-c2ccccn2)nc1C(=O)O` the TGI was 16.3 µM. For `Cc1cc(C)cc(C(=N)c2ccccc2Cc2cccc3ccccc23)c1`, the TGI was 41.5 µM. `COc1cc(/C=C2\C[C@H]3[C@@H]4CC=C5C[C@@H](O)CC[C@]5(C)[C@H]4CC[C@]3(C)C2=O)cc(OC)c1OC` was tested, and the TGI was > 100 µM. With `C#CCn1ncc2c(SCc3ccccc3)ncnc21` the TGI was > 100 µM. In the case of `CCOC(=O)C1(C(=O)OCC)CN(CC)CN(c2ccccc2)C1`, the TGI was > 100 µM.

Each compound was assayed on EKVX NSCLC (assay: growth of human tumour cells (NCI), 48 h).
For `CC(=O)OC1CC2c3cccc4c3C(CC2N(C)C1=O)CN4C(=O)c1ccccc1` (stereo unspecified), the TGI was 83.1 µM. In the case of `COc1ccc2c3c1O[C@H]1C(O)CCC4(O)[C@@H](C2)NCC[C@]314` (stereo partly specified), the TGI was > 100 µM. `O=C(O)c1nc(-c2ccccn2)c(-c2ccccn2)nc1C(=O)O` showed a TGI of 13.6 µM. `Cc1cc(C)cc(C(=N)c2ccccc2Cc2cccc3ccccc23)c1` gave a TGI of 46.4 µM. With `COc1cc(/C=C2\C[C@H]3[C@@H]4CC=C5C[C@@H](O)CC[C@]5(C)[C@H]4CC[C@]3(C)C2=O)cc(OC)c1OC` the TGI was > 100 µM. For `C#CCn1ncc2c(SCc3ccccc3)ncnc21`, the TGI was > 100 µM. `CCOC(=O)C1(C(=O)OCC)CN(CC)CN(c2ccccc2)C1` was tested, and the TGI was 34 µM.

What follows are compounds tested on SW-620 colon (assay: growth of human tumour cells (NCI), 48 h).
For `CC(=O)OC1CC2c3cccc4c3C(CC2N(C)C1=O)CN4C(=O)c1ccccc1` (stereo unspecified), the TGI was > 100 µM. In the case of `COc1ccc2c3c1O[C@H]1C(O)CCC4(O)[C@@H](C2)NCC[C@]314` (stereo partly specified), the TGI was > 100 µM. Work on `O=C(O)c1nc(-c2ccccn2)c(-c2ccccn2)nc1C(=O)O` yielded a TGI of 18.8 µM. Compound `Cc1cc(C)cc(C(=N)c2ccccc2Cc2cccc3ccccc23)c1` has a TGI of 31.8 µM. In the case of `COc1cc(/C=C2\C[C@H]3[C@@H]4CC=C5C[C@@H](O)CC[C@]5(C)[C@H]4CC[C@]3(C)C2=O)cc(OC)c1OC`, the TGI was > 100 µM. For `C#CCn1ncc2c(SCc3ccccc3)ncnc21`, the TGI was > 100 µM. With `CCOC(=O)C1(C(=O)OCC)CN(CC)CN(c2ccccc2)C1` the TGI was > 100 µM.
